These are literature values, as cited in patent US11759449B2, “Methods for reducing oxidative effects of free radicals” (Hugg LLC, priority 2021, dated 2023).

The conditions of data set [1]: background, refs (2, 3).
The conditions of data set [2]: background, refs (2, 3). This is another data set of the same source.

For `Oc1ccc(C=Cc2cc(O)cc(O)c2)cc1` [resveratrol], the solubility result in data set [1] was “poor”. Moreover, the bioavailability entry in data set [2] is recorded as “poor”.
